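1) Cells in 96-well plates. 2) Compound, 48 h, 5 concentrations. 3) Linear interpolation between surrounding doses. 4) Unreached endpoint = highest concentration. Here, GI50 denotes the concentration required for 50% inhibition of growth. TGI denotes the concentration required for complete inhibition of growth.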
Tests used:
Experiment in all cases: DTP human tumour cell line panel, 48 h
786-0 renal = system: 786-0 renal
A498 renal = system: A498 renal
A549 NSCLC = system: A549 NSCLC
ACHN renal = system: ACHN renal
BT-549 breast = system: BT-549 breast
CAKI-1 renal = system: CAKI-1 renal
CCRF-CEM leukemia = system: CCRF-CEM leukemia
COLO 205 colon = system: COLO 205 colon
DU-145 prostate = system: DU-145 prostate
EKVX NSCLC = system: EKVX NSCLC
HCC-2998 colon = system: HCC-2998 colon
HCT-116 colon = system: HCT-116 colon
HCT-15 colon = system: HCT-15 colon
HL-60(TB) leukemia = system: HL-60(TB) leukemia
HOP-62 NSCLC = system: HOP-62 NSCLC
HOP-92 NSCLC = system: HOP-92 NSCLC
HS 578T breast = system: HS 578T breast
HT29 colon = system: HT29 colon
IGROV1 ovarian = system: IGROV1 ovarian
K-562 leukemia = system: K-562 leukemia
KM12 colon = system: KM12 colon
LOX IMVI melanoma = system: LOX IMVI melanoma
M14 melanoma = system: M14 melanoma
MALME-3M melanoma = system: MALME-3M melanoma
MCF7 breast = system: MCF7 breast
MDA-MB-231 breast = system: MDA-MB-231 breast
MDA-MB-435 = system: MDA-MB-435
MOLT-4 leukemia = system: MOLT-4 leukemia
NCI-H226 lung = system: NCI-H226 lung
NCI-H23 lung = system: NCI-H23 lung
NCI-H460 lung = system: NCI-H460 lung
NCI-H522 lung = system: NCI-H522 lung
NCI/ADR-RES ovarian = system: NCI/ADR-RES ovarian
OVCAR-3 ovarian = system: OVCAR-3 ovarian
OVCAR-4 ovarian = system: OVCAR-4 ovarian
OVCAR-5 ovarian = system: OVCAR-5 ovarian
OVCAR-8 ovarian = system: OVCAR-8 ovarian
PC-3 prostate = system: PC-3 prostate
RPMI-8226 leukemia = system: RPMI-8226 leukemia
RXF 393 renal = system: RXF 393 renal
SF-268 CNS = system: SF-268 CNS
SF-295 CNS = system: SF-295 CNS
SF-539 CNS = system: SF-539 CNS
SK-MEL-2 melanoma = system: SK-MEL-2 melanoma
SK-MEL-28 melanoma = system: SK-MEL-28 melanoma
SK-MEL-5 melanoma = system: SK-MEL-5 melanoma
SK-OV-3 ovarian = system: SK-OV-3 ovarian
SN12C renal = system: SN12C renal
SNB-19 CNS = system: SNB-19 CNS
SNB-75 CNS = system: SNB-75 CNS
SR leukemia = system: SR leukemia
SW-620 colon = system: SW-620 colon
T-47D breast = system: T-47D breast
TK-10 renal = system: TK-10 renal
U251 CNS = system: U251 CNS
UACC-257 melanoma = system: UACC-257 melanoma
UACC-62 melanoma = system: UACC-62 melanoma
UO-31 renal = system: UO-31 renal

O=C1C(SCCO)=C(SCCO)C(=O)N1c1ccc(-c2ccccc2)cc1
GI50 (786-0 renal): 1.33 µM | TGI (786-0 renal): 2.84 µM | GI50 (A498 renal): 18 µM | TGI (A498 renal): 37.9 µM | GI50 (A549 NSCLC): 10.2 µM | TGI (A549 NSCLC): 27 µM | GI50 (ACHN renal): 1.68 µM | TGI (ACHN renal): 3.11 µM | GI50 (BT-549 breast): 4.01 µM | TGI (BT-549 breast): 8.38 µM | GI50 (CAKI-1 renal): 0.644 µM | TGI (CAKI-1 renal): 1.79 µM | GI50 (CCRF-CEM leukemia): 2.34 µM | TGI (CCRF-CEM leukemia): 6.87 µM | GI50 (COLO 205 colon): 1.45 µM | TGI (COLO 205 colon): 3.09 µM | GI50 (DU-145 prostate): 3.59 µM | TGI (DU-145 prostate): 8.94 µM | GI50 (EKVX NSCLC): 9.5 µM | TGI (EKVX NSCLC): 23.3 µM | GI50 (HCC-2998 colon): 3.65 µM | TGI (HCC-2998 colon): 9.87 µM | GI50 (HCT-116 colon): 0.536 µM | TGI (HCT-116 colon): 1.24 µM | GI50 (HCT-15 colon): 2.13 µM | TGI (HCT-15 colon): 5.31 µM | GI50 (HL-60(TB) leukemia): 18.7 µM | TGI (HL-60(TB) leukemia): 51.6 µM | GI50 (HOP-62 NSCLC): 4.88 µM | TGI (HOP-62 NSCLC): 10.6 µM | GI50 (HOP-92 NSCLC): 1.87 µM | TGI (HOP-92 NSCLC): 7.24 µM | GI50 (HS 578T breast): 17.2 µM | TGI (HS 578T breast): > 77.9 µM | GI50 (HT29 colon): 1.02 µM | TGI (HT29 colon): 3.5 µM | GI50 (IGROV1 ovarian): 2.02 µM | TGI (IGROV1 ovarian): 4.67 µM | GI50 (K-562 leukemia): > 50 µM | TGI (K-562 leukemia): > 100 µM | GI50 (KM12 colon): 7.55 µM | TGI (KM12 colon): 20.8 µM | GI50 (LOX IMVI melanoma): 2.7 µM | TGI (LOX IMVI melanoma): 8.44 µM | GI50 (M14 melanoma): 2.31 µM | TGI (M14 melanoma): 7.64 µM | GI50 (MALME-3M melanoma): 1.61 µM | TGI (MALME-3M melanoma): 5.31 µM | GI50 (MCF7 breast): 2.17 µM | TGI (MCF7 breast): 7.74 µM | GI50 (MDA-MB-231 breast): 13.3 µM | TGI (MDA-MB-231 breast): 32.7 µM | GI50 (MDA-MB-435): 4.98 µM | TGI (MDA-MB-435): 12.8 µM | GI50 (MOLT-4 leukemia): 18.9 µM | TGI (MOLT-4 leukemia): 73.1 µM | GI50 (NCI-H226 lung): 23.1 µM | TGI (NCI-H226 lung): > 53.4 µM | GI50 (NCI-H23 lung): 4.38 µM | TGI (NCI-H23 lung): 13.3 µM | GI50 (NCI-H460 lung): 9.75 µM | TGI (NCI-H460 lung): 34.9 µM | GI50 (NCI-H522 lung): 7.51 µM | TGI (NCI-H522 lung): 22.6 µM | GI50 (NCI/ADR-RES ovarian): 3.54 µM | TGI (NCI/ADR-RES ovarian): 16.2 µM | GI50 (OVCAR-3 ovarian): 0.897 µM | TGI (OVCAR-3 ovarian): 2.32 µM | GI50 (OVCAR-4 ovarian): 0.932 µM | TGI (OVCAR-4 ovarian): 3.1 µM | GI50 (OVCAR-5 ovarian): 3.61 µM | TGI (OVCAR-5 ovarian): 11 µM | GI50 (OVCAR-8 ovarian): 2 µM | TGI (OVCAR-8 ovarian): 5.82 µM | GI50 (PC-3 prostate): 1.07 µM | TGI (PC-3 prostate): 7.57 µM | GI50 (RPMI-8226 leukemia): 0.845 µM | TGI (RPMI-8226 leukemia): 4.6 µM | GI50 (RXF 393 renal): 1.19 µM | TGI (RXF 393 renal): 2.73 µM | GI50 (SF-268 CNS): 3.1 µM | TGI (SF-268 CNS): 7.65 µM | GI50 (SF-295 CNS): 20.7 µM | TGI (SF-295 CNS): 46.1 µM | GI50 (SF-539 CNS): 1.78 µM | TGI (SF-539 CNS): 3.92 µM | GI50 (SK-MEL-2 melanoma): 0.259 µM | TGI (SK-MEL-2 melanoma): 1.69 µM | GI50 (SK-MEL-28 melanoma): 2.41 µM | TGI (SK-MEL-28 melanoma): 6.65 µM | GI50 (SK-MEL-5 melanoma): 9.46 µM | TGI (SK-MEL-5 melanoma): 24.6 µM | GI50 (SK-OV-3 ovarian): 32.7 µM | TGI (SK-OV-3 ovarian): > 100 µM | GI50 (SN12C renal): 5.47 µM | TGI (SN12C renal): 19.6 µM | GI50 (SNB-19 CNS): 19.8 µM | TGI (SNB-19 CNS): 43.1 µM | GI50 (SNB-75 CNS): 4.1 µM | TGI (SNB-75 CNS): 11.1 µM | GI50 (SR leukemia): 0.182 µM | TGI (SR leukemia): > 100 µM | GI50 (SW-620 colon): 1.45 µM | TGI (SW-620 colon): 3.94 µM | GI50 (T-47D breast): 1.71 µM | TGI (T-47D breast): 7.43 µM | GI50 (TK-10 renal): 1.49 µM | TGI (TK-10 renal): 3.18 µM | GI50 (U251 CNS): 5.21 µM | TGI (U251 CNS): 15.7 µM | GI50 (UACC-257 melanoma): 3.32 µM | TGI (UACC-257 melanoma): 7.62 µM | GI50 (UACC-62 melanoma): 6.34 µM | TGI (UACC-62 melanoma): 19 µM | GI50 (UO-31 renal): 1.54 µM | TGI (UO-31 renal): 2.97 µM

From PubChem BioAssay (NCI)
